Results on 20 compounds are retold here after patent US20140135270A1, “MACROCYCLIC COMPOUNDS FOR INHIBITION OF INHIBITORS OF APOPTOSIS” (Ensemble Therapeutics Corp., priority 2012, published 2014).

For orientation: IC50 means the concentration that gives 50% inhibition. Low values mean higher potency, high ones lower potency.

Assay [1] addresses T1, His-BIR2-3 (125-356, C202A/C213G, XIAP) (Homo sapiens, UniProt P98170, C202A/C213G).
T1 construct: additions of His-BIR2-3 (125-356, C202A/C213G, XIAP), fluorescein labeled dimeric SMAC peptide
Nature of the assay: XIAP-BIR2-3 Dimeric SMAC Peptide Homogeneous Time Resolved Fluorescence (HTRF) Assay. The class given is binding. Conditions: fluorescein labeled dimeric SMAC peptide. A general note: TR-FRET usually uses a lanthanide donor and a delayed reading to cut background.

The target of another assay is T2, His-BIR3 (241-356, XIAP) (Homo sapiens, UniProt P98170).
T2 construct: additions of His-BIR3 (241-356, XIAP), fluorescein labeled SMAC peptide
Nature of the assay: XIAP-BIR3/SMAC Homogeneous Time Resolved Fluorescence (HTRF) Assay. Conditions: fluorescein labeled SMAC peptide. It is filed as binding.

T2 sequence (P98170 241-356): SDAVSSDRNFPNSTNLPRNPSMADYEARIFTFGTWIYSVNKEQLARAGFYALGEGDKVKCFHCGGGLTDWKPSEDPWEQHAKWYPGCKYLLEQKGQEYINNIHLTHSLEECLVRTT
T1 sequence (P98170 125-356 C202A/C213G): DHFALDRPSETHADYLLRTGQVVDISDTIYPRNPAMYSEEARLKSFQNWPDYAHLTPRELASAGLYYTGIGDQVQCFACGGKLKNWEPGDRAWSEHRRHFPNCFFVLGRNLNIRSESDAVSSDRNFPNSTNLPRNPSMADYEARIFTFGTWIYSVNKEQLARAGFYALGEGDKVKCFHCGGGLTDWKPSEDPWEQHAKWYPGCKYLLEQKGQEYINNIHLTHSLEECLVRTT

On to `CN[C@@H](C)C(=O)N[C@H](C(=O)N1C[C@@H]2C[C@H]1C(=O)NC(Cc1ccc3ccccc3c1)C(=O)N[C@H](c1n[nH]c(=O)n1Cc1ccc(OC)cc1)Cc1ccc(cc1)OC/C=C/C[C@H]1C[C@@H](C(=O)N[C@@H](Cc3ccc4ccccc4c3)C(=O)N[C@H](C(=O)O)Cc3ccc(cc3)OCc3cn2nn3)N(C(=O)[C@@H](NC(=O)[C@H](C)NC)C(C)(C)C)C1)C(C)(C)C` (stereo partly shown) [Example 95], for which the IC50 in assay [1] came out at 1.8 nM; on His-BIR3 (241-356, XIAP), 3.1 nM.
The like results for `CN[C@@H](C)C(=O)N[C@H](C(=O)N1C[C@@H]2C[C@H]1C(=O)N[C@@H](Cc1ccc3ccccc3c1)C(=O)N[C@H](C(=O)O)Cc1ccc(cc1)OCc1cn(nn1)[C@H]1C[C@@H](C(=O)N[C@@H](Cc3ccc4ccccc4c3)C(=O)N[C@H](C(=O)O)Cc3ccc(cc3)OCCCCO2)N(C(=O)[C@@H](NC(=O)[C@H](C)NC)C(C)(C)C)C1)C(C)(C)C` [Example 121] were, in that order, 7.9 nM and 11.6 nM.
On the same counts, the results for `CN[C@@H](C)C(=O)N[C@H](C(=O)N1CC[C@H]2OCc3cn(nn3)CC[C@@H](C(=O)OC)NC(=O)[C@H](Cc3ccc4ccccc4c3)NC(=O)[C@@H]3[C@@H](CCN3C(=O)[C@@H](NC(=O)[C@H](C)NC)C(C)(C)C)OC/C=C/CC[C@@H](C(=O)O)NC(=O)[C@H](Cc3ccc4ccccc4c3)NC(=O)[C@H]21)C(C)(C)C` [Example 16] are 3.5 nM and 6.2 nM.
The like results for `CN[C@@H](C)C(=O)N[C@H](C(=O)N1C[C@@H]2C[C@H]1C(=O)NC(Cc1ccc3ccccc3c1)C(=O)N[C@H](c1nnn[nH]1)Cc1ccc(cc1)OC/C=C/C[C@H]1C[C@@H](C(=O)N[C@@H](Cc3ccc4ccccc4c3)C(=O)N[C@H](C(=O)O)Cc3ccc(cc3)OCc3cn2nn3)N(C(=O)[C@@H](NC(=O)[C@H](C)NC)C(C)(C)C)C1)C(C)(C)C` (stereo partly shown) [Example 93] were, in that order, 0.4 nM and 0.8 nM.
Consider `CN[C@@H](C)C(=O)N[C@@H](Cc1ccccc1)C(=O)N1C[C@@H]2C[C@H]1C(=O)N[C@@H](Cc1ccc3ccccc3c1)C(=O)N[C@H](C(=O)O)CCC(=O)N[C@H]1C[C@@H](C(=O)N[C@@H](Cc3ccc4ccccc4c3)C(=O)N[C@H](C(=O)O)Cc3ccc(cc3)OC/C=C/CO2)N(C(=O)[C@@H](NC(=O)[C@H](C)NC)C(C)(C)C)C1` [Example 60], for which the IC50 in assay [1] was found to be 9.2 nM; at His-BIR3 (241-356, XIAP) it was 79.5 nM.
On the same counts, the results for `CN[C@@H](C)C(=O)N[C@H](C(=O)N1C[C@@H]2C[C@H]1C(=O)N[C@@H](Cc1ccc3ccccc3c1)C(=O)N[C@H](C(=O)O)Cc1ccc(cc1)OCc1cn(nn1)[C@H]1C[C@@H](C(=O)N[C@@H](Cc3ccc4ccccc4c3)C(=O)N[C@H](C(=O)NS(=O)(=O)C3CC3)Cc3ccc(cc3)OCCCCO2)N(C(=O)[C@@H](NC(=O)[C@H](C)NC)C(C)(C)C)C1)C(C)(C)C` [Example 122] are 11.3 nM and 12.9 nM.
The like results for `CN[C@@H](C)C(=O)N[C@H](C(=O)N1C[C@H]2C/C=C/COc3ccc(cc3)C[C@@H](C(=O)NS(=O)(=O)C3CC3)NC(=O)[C@H](Cc3ccc4ccccc4c3)NC(=O)[C@@H]3C[C@@H](CN3C(=O)[C@@H](NC(=O)[C@H](C)NC)C(C)(C)C)n3cc(nn3)COc3ccc(cc3)C[C@@H](C(=O)O)NC(=O)[C@H](Cc3ccc4ccccc4c3)NC(=O)[C@@H]1C2)C(C)(C)C` [Example 25] were, in that order, 0.2 nM and 0.9 nM.
The like results for `CN[C@@H](C)C(=O)N[C@H](C(=O)N1C[C@@H]2C[C@H]1C(=O)N[C@@H](Cc1ccc3ccccc3c1)C(=O)N[C@H](C(=O)O)Cc1ccc(cc1)OCc1cn(nn1)[C@H]1C[C@@H](C(=O)N[C@@H](Cc3ccc4ccccc4c3)C(=O)N[C@H](C(=O)NS(=O)(=O)C3CC3)Cc3ccc(cc3)OCCCCO2)N(C(=O)[C@@H](NC(=O)[C@H](C)NC)C(C)(C)C)C1)C(C)(C)C` [Example 123] were, in that order, 5.4 nM and 7.8 nM.
Consider `CC[C@H](NC(=O)[C@H](C)NC)C(=O)N1C[C@@H]2C[C@H]1C(=O)N[C@@H](C)C(=O)N[C@H](C(=O)O)Cc1ccc(cc1)C(=O)N[C@H]1C[C@@H](C(=O)N[C@@H](Cc3ccc4ccccc4c3)C(=O)N[C@H](C(=O)O)Cc3ccc(cc3)OC/C=C/CO2)N(C(=O)[C@@H](NC(=O)[C@H](C)NC)C(C)(C)C)C1` [Example 45], for which the half-inhibitory concentration (IC50) is 7.9 nM in assay [1] and 106 nM at His-BIR3 (241-356, XIAP).
Turning to `CN[C@@H](C)C(=O)N[C@H](C(=O)N1CC[C@H]2OC/C=C/CC[C@@H](C(=O)O)NC(=O)[C@H](Cc3ccc4ccccc4c3)NC(=O)[C@@H]3[C@@H](CCN3C(=O)[C@@H](NC(=O)[C@H](C)NC)C(C)(C)C)OCc3cn(nn3)[C@H](C(=O)O)CCNC(=O)[C@H](Cc3ccc4ccccc4c3)NC(=O)[C@H]21)C(C)(C)C` [Example 15], the concentration for half-maximal inhibition (IC50) in assay [1] was found to be 4.1 nM; against His-BIR3 (241-356, XIAP), 38.9 nM.
The like results for `CN[C@@H](C)C(=O)N[C@H](C(=O)N1C[C@@H]2C[C@H]1C(=O)N[C@@H](Cc1ccc3ccccc3c1)C(=O)N[C@H](C(=O)O)Cc1ccc(cc1)OC/C=C/CO[C@H]1C[C@@H](C(=O)N[C@@H](C(c3ccccc3)c3ccccc3)C(=O)N[C@H](C(=O)NS(=O)(=O)C3CC3)Cc3ccc(cc3)OCc3cn2nn3)N(C(=O)[C@@H](NC(=O)[C@H](C)NC)C(C)(C)C)C1)C(C)(C)C` [Example 104] were, in that order, 8.7 nM and 105 nM.
For `CC[C@H](NC(=O)[C@H](C)NC)C(=O)N1C[C@@H]2C[C@H]1C(=O)N1Cc3ccccc3C[C@H]1C(=O)N[C@H](C(=O)O)Cc1ccc(cc1)C(=O)N[C@H]1C[C@@H](C(=O)N[C@@H](Cc3ccc4ccccc4c3)C(=O)N[C@H](C(=O)O)Cc3ccc(cc3)OC/C=C/CO2)N(C(=O)[C@@H](NC(=O)[C@H](C)NC)C(C)(C)C)C1` [Example 50], the concentration for half-maximal inhibition (IC50) is 56.7 nM in assay [1] and 80 nM on His-BIR3 (241-356, XIAP).
`CN[C@@H](C)C(=O)N[C@H](C(=O)N1C[C@@H]2C[C@H]1C(=O)N[C@@H](Cc1ccc3ccccc3c1)C(=O)N[C@H](C(=O)O)Cc1ccc(cc1)OC/C=C/CO[C@H]1C[C@@H](C(=O)N[C@@H](Cc3cccc(-c4ccc(CO)cc4)c3)C(=O)N[C@H](C(=O)NS(=O)(=O)C3CC3)Cc3ccc(cc3)OCc3cn2nn3)N(C(=O)[C@@H](NC(=O)[C@H](C)NC)C(C)(C)C)C1)C(C)(C)C` [Example 117]: the IC50 in assay [1] was 11.3 nM; against His-BIR3 (241-356, XIAP), 9.4 nM.
On the same counts, the results for `CNC(C)C(=O)NC(C(=O)N1CC2CC1C(=O)NC(Cc1ccc3ccccc3c1)C(=O)NC(C(=O)O)Cc1ccc(cc1)OCC=CCOC1CC(C(=O)NC(Cc3ccc4ccccc4c3)C(=O)NC(C(=O)O)CCCCC(=O)N2)N(C(=O)C(NC(=O)C(C)NC)C(C)(C)C)C1)C(C)(C)C` (stereo not shown) [Example 31] are 2.1 nM and 5.8 nM.
The like results for `CN[C@@H](C)C(=O)N[C@H](C(=O)N1C[C@@H]2C[C@H]1C(=O)N[C@@H](Cc1ccc3ccccc3c1)C(=O)N[C@H](C(=O)O)Cc1ccc(cc1)OC/C=C/CO[C@H]1C[C@@H](C(=O)N[C@@H](Cc3ccc(-c4ccccc4)cc3)C(=O)N[C@H](C(=O)NS(=O)(=O)C3CC3)Cc3ccc(cc3)OCc3cn2nn3)N(C(=O)[C@@H](NC(=O)[C@H](C)NC)C(C)(C)C)C1)C(C)(C)C` [Example 106] were, in that order, 1.7 nM and 17.9 nM.
On the same counts, the results for `CN[C@@H](C)C(=O)N[C@@H](CC(N)=O)C(=O)N1C[C@@H]2C[C@H]1C(=O)N[C@@H](Cc1ccc3ccccc3c1)C(=O)N[C@H](C(=O)O)Cc1ccc(cc1)C(=O)N[C@H]1C[C@@H](C(=O)N[C@@H](Cc3ccc4ccccc4c3)C(=O)N[C@H](C(=O)O)Cc3ccc(cc3)OC/C=C/CO2)N(C(=O)[C@@H](NC(=O)[C@H](C)NC)C(C)(C)C)C1` [Example 72] are 9.3 nM and 48.5 nM.
Turning to `CN[C@@H](C)C(=O)N[C@H](C(=O)N1C[C@@H]2C[C@H]1C(=O)N[C@@H](Cc1ccc3ccccc3c1)C(=O)N[C@H](C(=O)O)Cc1ccc(cc1)C(=O)N[C@H]1C[C@@H](C(=O)N[C@@H](Cc3ccc4ccccc4c3)C(=O)N[C@H](C(=O)O)Cc3ccc(cc3)OC/C=C/CO2)N(C(=O)[C@@H](NC(=O)[C@H](C)NC)C(C)(C)C)C1)C(C)O` (stereo partly shown) [Example 65], the IC50 is 1.9 nM in assay [1] and 14.3 nM at His-BIR3 (241-356, XIAP).
With `CC[C@H](NC(=O)[C@H](C)NC)C(=O)N1C[C@@H]2C[C@H]1C(=O)N[C@@H](Cc1c[nH]c3ccccc13)C(=O)N[C@H](C(=O)O)Cc1ccc(cc1)C(=O)N[C@H]1C[C@@H](C(=O)N[C@@H](Cc3ccc4ccccc4c3)C(=O)N[C@H](C(=O)O)Cc3ccc(cc3)OC/C=C/CO2)N(C(=O)[C@@H](NC(=O)[C@H](C)NC)C(C)(C)C)C1` [Example 47], the IC50 in assay [1] is 6.3 nM; against His-BIR3 (241-356, XIAP) it was 41.8 nM.
On the same counts, the results for `CN[C@@H](C)C(=O)N[C@H](C(=O)N1C[C@@H]2C[C@H]1C(=O)N[C@@H](Cc1ccc3ccccc3c1)C(=O)N[C@H](C(=O)O)Cc1ccc(cc1)OCCCC[C@H]1C[C@@H](C(=O)N[C@@H](Cc3ccc4ccccc4c3)C(=O)N[C@H](C(=O)NS(=O)(=O)C3CC3)Cc3ccc(cc3)OCc3cn2nn3)N(C(=O)[C@@H](NC(=O)[C@H](C)NC)C(C)(C)C)C1)C(C)(C)C` [Example 87] are 1.3 nM and 2.4 nM.
On the same counts, the results for `CN[C@@H](C)C(=O)N[C@H](C(=O)N1C[C@@H]2C[C@H]1C(=O)N[C@@H](Cc1ccc3ccccc3c1)C(=O)N[C@H](C(=O)O)Cc1ccc(cc1)OCCCCO[C@H]1C[C@@H](C(=O)N[C@@H](Cc3ccc4ccccc4c3)C(=O)N[C@H](C(=O)NS(=O)(=O)C3CC3)Cc3ccc(cc3)OCc3cn2nn3)N(C(=O)[C@@H](NC(=O)[C@H](C)NC)C(C)(C)C)C1)C(C)(C)C` [Example 120] are 8 nM and 42 nM.
